Tested on: Haemonchus contortus L3 resistant strain
Assay: In vitro motility assay, H. contortus L3 resistant strain
Format: cell-based
Settings: 96 hours; for H. contortus L3 resistant MED: minimum efficacious dose, visual motility assessment; for % Motility: vs untreated control, LemnaTec, moxidectin 0.3 μM, pyrantel 10 μM, Compound A 100 μM, alone or combined

Structure (SMILES) | H. contortus L3 resistant MED [µM] | % Motility [%]
CS(=O)(=O)CC(=O)N1CC2(C1)OCc1cc(C3=NO[C@@](c4cc(Cl)c(F)c(Cl)c4)(C(F)(F)F)C3)ccc12 [Compound A, (S)-1-(5′-(5-(3,5-dichloro-4-fluorophenyl)-5-(trifluoromethyl)-4,5-dihydroisoxazol-3-yl)-3′H-spiro[azetidine-3,1′-isobenzofuran]-1-yl)-2-(methylsulfonyl)ethanone] | >100 | 69.0
CO/N=C1\C[C@]2(C[C@@H]3C[C@@H](C/C=C(\C)C[C@@H](C)/C=C/C=C4\CO[C@@H]5[C@H](O)C(C)=C[C@@H](C(=O)O3)[C@]45O)O2)O[C@H](/C(C)=C/C(C)C)[C@H]1C [Moxidectin, moxidectin] | 1 | 64.3
CN1CCCN=C1/C=C/c1cccs1 [Pyrantel, pyrantel pamoate] | 33 | 80.0
